Source: patent US8293261B2, “Intravascular implant” (Terumo Kabushiki Kaisha, priority 2005, dated 2012)
pIC50: −log10 of the molar value.

Test system: human vascular smooth muscle cells
Type: cell-based
Settings: for pIC50: human vascular smooth muscle cells, 48 hours with substance, WST-1 absorbance at 450 nm
Experimental: Substances indicated in Table 1 were used to carry out a cell cytotoxicity test using human vascular smooth muscle cells.
More particularly, human vascular smooth muscle cells were implanted into individual wells of a 96-well microtitor plate along with a culture solution (commercial name: SmGM-2 Bullet kit, made by Cambrex Corporation), followed by cultivation in a carbon dioxide gas incubator at 37° C. for 48 hours. The culture solution dissolving MgCl2 that was used as a chemical substance to be tested was added thereto in every […] so that a final concentration was at 1×10^−7 to 10^−1 M, followed by cultivation for further 48 hours.
Next, WST-1 (La Roche Ltd.) was added, followed by cultivation for 4 hours. WST-1 taken in the human vascular smooth muscle cells was extracted, and the absorbance at 450 nm of the resulting extract was measured by means of a microreader (commercial name: iEMS reader MF, made by Labsystems Inc.). It will be noted that WST-1 taken in the human vascular smooth muscle cells emits light when oxidized and reduced by means of an electron transmission system of mitochondria. Accordingly, WST-1 emits light by reaction only with living cells.
A graph was made wherein an abscissa indicates a concentration of a chemical substance to be subjected to the cytotoxicity test and an ordinate indicates a ratio of a quantity of emitted light of cells subjected to treatment with a chemical substance to be tested to a quantity of emitted light of non-treated cells for reference. The degree of cell cytotoxicity was quantified as a concentration of a chemical substance (IC50 value) at which a ratio of a quantity of a dye taken in the treated cells to a quantity of a dye taken in non-treated cells was at 50%.
Such a test was carried out with respect to other types of chemical substances (NdCl2, GdCl2, Ycl3, CrCl2, and NiCl2) to be subjected to the cytotoxicity test to likewise obtain IC50 values.

| Compound | cell cytotoxicity (in words) | pIC50 |
| --- | --- | --- |
| [Cl][Gd][Cl] [GdCl2] | very low | 1.09 |
| [Cl-].[Cl-].[Mg+2] [MgCl2] | very low | 1.47 |
| [Cl][Cr][Cl] [CrCl2] |  | 3.96 |
| [Cl-].[Cl-].[Cl-].[Y+3] [Ycl3] |  | 3.44 |
| [Cl-].[Cl-].[Nd+2] [NdCl2] | very low | 1.13 |
| [Cl][Ni][Cl] [NiCl2] |  | 3.12 |
